According to ChEMBL document CHEMBL3045305, “Synthesis, anticancer and antibacterial activities of piperine analogs” (Med Chem Res, 2013):
≈ marks a conversion by molar mass, not a printed value.

Assays:
Type in all cases: functional
Shigella dysenteriae = experiment: Antibacterial activity against Shigella dysenteriae assessed as growth inhibition after 24 hr by two-fold serial dilution method
Staphylococcus aureus = experiment: Antibacterial activity against Staphylococcus aureus assessed as growth inhibition after 24 hr by two fold serial dilution method
Salmonella typhi = experiment: Antibacterial activity against Salmonella enterica subsp. enterica serovar Typhi assessed as growth inhibition after 24 hr by two fold serial dilution method
Klebsiella pneumoniae = experiment: Antibacterial activity against Klebsiella pneumoniae assessed as growth inhibition after 24 hr by two-fold serial dilution method
Bacillus subtilis = experiment: Antibacterial activity against Bacillus subtilis assessed as growth inhibition after 24 hr by two fold serial dilution method
Pseudomonas aeruginosa = experiment: Antibacterial activity against Pseudomonas aeruginosa assessed as growth inhibition after 24 hr by two-fold serial dilution method
Escherichia coli = experiment: Antibacterial activity against Escherichia coli assessed as growth inhibition after 24 hr by two-fold serial dilution method

Structure (SMILES): O=C(/C=C/C=C/c1ccc2c(c1)OCO2)Nc1ccc(Cl)cc1
- MIC (Shigella dysenteriae): 200 µg/mL (≈ 610 µM)
- MIC (Staphylococcus aureus): 200 µg/mL (≈ 610 µM)
- MIC (Salmonella typhi): 400 µg/mL (≈ 1220 µM)
- MIC (Klebsiella pneumoniae): 300 µg/mL (≈ 915 µM)
- MIC (Bacillus subtilis): 500 µg/mL (≈ 1530 µM)
- MIC (Pseudomonas aeruginosa): 200 µg/mL (≈ 610 µM)
- MIC (Escherichia coli): 100 µg/mL (≈ 305 µM)

Structure (SMILES): O=C(/C=C/C=C/c1ccc2c(c1)OCO2)N[C@@H](Cc1c[nH]c2ccccc12)C(=O)O
- MIC (Shigella dysenteriae): 300 µg/mL (≈ 742 µM)
- MIC (Staphylococcus aureus): 300 µg/mL (≈ 742 µM)
- MIC (Salmonella typhi): 200 µg/mL (≈ 495 µM)
- MIC (Klebsiella pneumoniae): 200 µg/mL (≈ 495 µM)
- MIC (Bacillus subtilis): 400 µg/mL (≈ 989 µM)
- MIC (Pseudomonas aeruginosa): 200 µg/mL (≈ 495 µM)
- MIC (Escherichia coli): 400 µg/mL (≈ 989 µM)

Structure (SMILES): O=C(/C=C/C=C/c1ccc2c(c1)OCO2)Nc1ccc(Br)cc1
- MIC (Shigella dysenteriae): 300 µg/mL (≈ 806 µM)
- MIC (Staphylococcus aureus): 300 µg/mL (≈ 806 µM)
- MIC (Salmonella typhi): 300 µg/mL (≈ 806 µM)
- MIC (Klebsiella pneumoniae): 100 µg/mL (≈ 269 µM)
- MIC (Bacillus subtilis): 500 µg/mL (≈ 1340 µM)
- MIC (Pseudomonas aeruginosa): 500 µg/mL (≈ 1340 µM)
- MIC (Escherichia coli): 200 µg/mL (≈ 537 µM)

Structure (SMILES): O=C(/C=C/C=C/c1ccc2c(c1)OCO2)N[C@@H](Cc1ccccc1)C(=O)O
- MIC (Shigella dysenteriae): 150 µg/mL (≈ 411 µM)
- MIC (Staphylococcus aureus): 400 µg/mL (≈ 1090 µM)
- MIC (Salmonella typhi): 200 µg/mL (≈ 547 µM)
- MIC (Klebsiella pneumoniae): 300 µg/mL (≈ 821 µM)
- MIC (Bacillus subtilis): 400 µg/mL (≈ 1090 µM)
- MIC (Pseudomonas aeruginosa): 400 µg/mL (≈ 1090 µM)
- MIC (Escherichia coli): 300 µg/mL (≈ 821 µM)

Structure (SMILES): O=C(/C=C/C=C/c1ccc2c(c1)OCO2)N[C@@H](Cc1cnc[nH]1)C(=O)O
- MIC (Shigella dysenteriae): 200 µg/mL (≈ 563 µM)
- MIC (Staphylococcus aureus): 300 µg/mL (≈ 844 µM)
- MIC (Salmonella typhi): 300 µg/mL (≈ 844 µM)
- MIC (Klebsiella pneumoniae): 300 µg/mL (≈ 844 µM)
- MIC (Bacillus subtilis): 300 µg/mL (≈ 844 µM)
- MIC (Pseudomonas aeruginosa): 300 µg/mL (≈ 844 µM)
- MIC (Escherichia coli): 200 µg/mL (≈ 563 µM)

Structure (SMILES): CC1(C)S[C@@H]2[C@H](NC(=O)[C@H](N)c3ccccc3)C(=O)N2[C@H]1C(=O)O [AMPICILLIN]
- MIC (Shigella dysenteriae): 16 µg/mL (≈ 45.8 µM)
- MIC (Staphylococcus aureus): 11 µg/mL (≈ 31.5 µM)
- MIC (Salmonella typhi): 15 µg/mL (≈ 42.9 µM)
- MIC (Klebsiella pneumoniae): 8 µg/mL (≈ 22.9 µM)
- MIC (Bacillus subtilis): 10 µg/mL (≈ 28.6 µM)
- MIC (Pseudomonas aeruginosa): 50 µg/mL (≈ 143 µM)
- MIC (Escherichia coli): 5 µg/mL (≈ 14.3 µM)

Structure (SMILES): O=C(/C=C/C=C/c1ccc2c(c1)OCO2)N1CCCCC1 [PIPERINE]
- MIC (Shigella dysenteriae): 600 µg/mL (≈ 2100 µM)
- MIC (Staphylococcus aureus): 300 µg/mL (≈ 1050 µM)
- MIC (Salmonella typhi): 200 µg/mL (≈ 701 µM)
- MIC (Klebsiella pneumoniae): 200 µg/mL (≈ 701 µM)
- MIC (Bacillus subtilis): 500 µg/mL (≈ 1750 µM)
- MIC (Pseudomonas aeruginosa): 100 µg/mL (≈ 350 µM)
- MIC (Escherichia coli): 300 µg/mL (≈ 1050 µM)
